{
  "source": "paper PMC9377006",
  "about": "“Discovery of Desmuramylpeptide NOD2 Agonists with Single-Digit Nanomolar Potency” (ACS Medicinal Chemistry Letters, 2022)",
  "system": "PBMCs",
  "test": "Cytokine release from peripheral blood mononuclear cells",
  "assay_type": "cell-based",
  "details": "human PBMCs",
  "excerpt": "Encouraged by the potent NOD2 activity of 40, we preliminarily evaluated its immunostimulatory potential in human primary peripheral blood mononuclear cells (PBMCs). Specifically, we first investigated the ability of 40 to induce cytokine production in PBMCs. While activation of NOD2 alone is sufficient to elicit cytokine responses, these responses are usually of low intensity. However, NOD2 agonists can act in synergy with ligands of other innate immune receptors and proinflammatory cytokines to induce considerably stronger responses. We were particularly intrigued by the synergistic interactions between NOD2, TLR4, and IFN-γ. The synergy between NOD2 agonists and TLR4 agonists in terms of cytokine secretion, including IFN-γ, is well-established.[29],[30] Similarly, IFN-γ has previously been reported to augment the MDP-mediated activation and cytokine production by dendritic cells and macrophages.[31],[32]\nFigure 2 Synergistic effects of 40 with LPS and IFN-γ on induction of cytokine production from PBMCs. Cytokine concentrations were measured after 18 h of stimulation with NOD2 agonists (1 μM) in the presence or absence of LPS (10 ng/mL) and IFN-γ (200 U/mL) or the corresponding vehicle (0.1% DMSO; NT). Data are expressed as mean ± SEM of three independent experiments. Statistical significance was determined by one-way ANOVA followed by Bonferroni’s multiple-comparisons test; *, p < 0.05, **, p < 0.01, ***, p < 0.001 versus vehicle-treated control; ##, p < 0.01, ###, p < 0.001 versus 40 or LPS alone.\nFigure S5. The effect of 40 on the production of cytokines from human PBMCs is NOD2 -dependent. PBMCs were pre-incubated for 1 h in the presence or absence of the NOD2 antagonist SG84 (10 µM), before the addition of 40 (1 µM). Cytokine concentrations in supernatants were measured after 18 h stimulation.\nData are expressed as mean s ± SEM of 3 independent experiments. Statistical significance was determined by one-way ANOVA followed by Bonferroni’s multiple comparisons test; **, p < 0.01, ***, p < 0.001. […]\n4.9 Cytokine release from peripheral blood mononuclear cells\nPeripheral blood mononuclear cells were seeded ( 500,000 cells/well) in 24-well plates in 500 µL growth medium and treated with MDP (1 µM), 2 (1 µM), or 40 (1 µM), in the presence or absence of LPS (10 ng/mL) or IFN-γ (200 U/mL), or the corresponding vehicle (0.1% DMSO). In some wells, PBMCs were pre-treated for 1 h with the NOD2 antagonist SG84 (10 µM), before the addition of 40 (1 µM). Cell-free supernatants were collected after 18 h of incubation (37 °C, 5% CO2) and stored at -80 °C until tested.\nCytokine production was determined with BD Cytometric Bead Array human inflammatory cytokines kit (BD Bioscience) on an Attune NxT flow cytometer (Thermo Fisher Scientific, Waltham, MA, USA). Standard curves were generated using recombinant cytokines contained in the kit. The data were analyzed using the FlowJo (Tree Star, Inc., Ashland, OR, USA) and Prism (GraphPad, San Diego, CA, USA) software.",
  "data": [
    {"smiles": "CCOC(=O)CC[C@@H](NC(=O)[C@@H](NC(=O)CNC(=O)/C=C/c1ccc(OC(=O)CC23CC4CC(CC(C4)C2)C3)c(OC)c1)C(C)C)C(=O)OCC", "note": "[Compound 40]", "values": [
      {"measurement": "production of IL-1β, IL-6 and TNF-α in combination with IFN-γ", "setting": "1 μM + IFN-γ 200 U/mL, 18 h", "value": "synergistically increased"},
      {"measurement": "production of IL-8 in combination with IFN-γ", "setting": "1 μM + IFN-γ 200 U/mL, 18 h", "value": "no apparent effect"},
      {"measurement": "production of IL-1β, IL-6 and TNF-α in combination with LPS", "setting": "1 μM + LPS 10 ng/mL, 18 h", "value": "superadditive manner"},
      {"measurement": "NOD2 dependence of cytokine production", "setting": "40 1 µM, pretreatment with NOD2 antagonist SG84 10 µM", "value": "entirely NOD2-dependent"},
      {"measurement": "production of IL-1β, IL-6, IL-8 and TNF-α, stimulant alone", "setting": "18 h, NOD2 agonists 1 μM, LPS 10 ng/mL, IFN-γ 200 U/mL", "value": "modest production"}
    ]}
  ]
}
